Laboratory results as given in US12590057B2, “Crystalline complexes” (Theracryf PLC, priority 2020, dated 2026).

How the values were obtained:
Type in all cases: physicochemical
[1] = Preliminary stability study, related substances by HPLC
Description: Analysis of samples of sulforaphane:alpha-cyclodextrin complexes as prepared herein were carried out by HPLC according to the following method: • Column—Phenomenex Gemini C18, 5 μm, 110 Å, 250×4.6 mm; • Mobile Phase A: Water (+0.1% TFA); • Mobile Phase B: Acetonitrile (+0.1% TFA); • Flow: 1.5 mL/min; • Injection Volume: 10 μL; • Column Temperature: 25° C.; • Run Time: 40 minutes; • Sample preparation—Accurately weighed and transferred about 320 mg±30 mg of the sample to a 25-mL volumetric flask, added about 15 mL of diluent (70% water, 30% acetonitrile, 0.1% TFA) and mixed until dissolved. Diluted to volume with diluent and mixed. Transferred 3-4 mL to a syringe and filtered using a 0.45 PTFE filter, discarding the first 1-2 ml, and filtered into an autosampler vial and sealed with PTFE lined cap (prepared in duplicate); • HPLC Gradient according to Table 12
Sulforaphane and certain related impurity peaks are summarised in Table 13, Characterisation of the impurities was carried out by LC-MS and ^1H-NMR. Relative Retention Times (RRT) are based on the HPLC method described above.
Samples of Form 1 (batch ref. LS19-0004-S-8002), Form 3 prepared by minimally-agitated drying (Example 5.3; batch ref. 491-PAL-18) and Form 3 prepared by continuously-agitated filter drying (Example 5B—trial 5; batch ref. 00173-005) were stored at 5° C. (Table 14) and at 25° C./60% RH (Table 15) for 8 weeks in 60 ml Duma® bottles fitted with 45 mm Duma® caps and samples were analysed by HPLC according to the above method.

[2] = XRPD physical form after storage; details: double bagged in HDPE bottle
Description: XRPD diffractograms were collected on a PANalytical Empyrean diffractometer using Cu Kα radiation (45 kV, 40 mA) in transmission geometry. A 0.5° sat, 4 mm mask and 0.04 rad Soller slits with a focusing mirror were used on the incident beam. A PIXcel^3D detector, placed on the diffracted beam, was fitted with a receiving slit and 0.04 rad Soller slits. The software used for data collection was X'Pert Data Collector using X'Pert Operator Interface. The data were analysed and presented using Diffrac Plus EVA or HighScore Plus.
After removal from the vacuum oven (day 0), Example 3 was reanalysed by XRPD in reflection mode on days 7, 9 and 29.
(§1) In a separate study, samples of Form 3 (Example 5.3; batch ref. 491-PAL-18) having an initial water content by KF of 2.3% w/w were tested for water content at various time points after storage double bagged in a HDPE bottle under various conditions as shown in Table 17.

[3] = KF water content of stability samples
Description: The water content of each sample was measured on a Metrohm 874 Oven Sample Processor at 150° C. with 851 Titrano Coulometer using Hydranal Coulomat AG oven reagent and nitrogen purge. Weighed solid samples were introduced into a sealed sample vial. Approximately 10 mg of sample was used per titration and duplicate determinations were made. […] Data collection and analysis were performed using Tiamo software.
The water content of samples of Form 1 (batch ref. LS19-0004-3-8002), Form 3 prepared by minimally-agitated drying ([…]; batch ref. 491-PAL-18) and Form 3 prepared by continuously-agitated filter drying (Example 5B trial 5; batch ref. 00173-005) was analysed by KF at the start of the stability study (initial) and after 2, 4 and 8 weeks storage in 60 ml Duma® bottles fitted with 45 mm Duma® caps (without desiccant) at 25° C./60% RH—see Table 16;
as §1

[4] = 25° C./60% RH stability, Initial
[5] = 2 weeks, Duma bottles without desiccant, 25° C./60% RH
[6] = 4 weeks, Duma bottles without desiccant, 25° C./60% RH
[7] = 8 weeks, Duma bottles without desiccant, 25° C./60% RH
[8] = Initial, Duma bottles without desiccant, 25° C./60% RH study

## C[S+]([O-])CCCCN=C=S.OC[C@H]1O[C@@H]2O[C@H]3[C@H](O)[C@@H](O)[C@@H](O[C@H]4[C@H](O)[C@@H](O)[C@@H](O[C@H]5[C@H](O)[C@@H](O)[C@@H](O[C@H]6[C@H](O)[C@@H](O)[C@@H](O[C@H]7[C@H](O)[C@@H](O)[C@@H](O[C@H]1[C@H](O)[C@H]2O)O[C@@H]7CO)O[C@@H]6CO)O[C@@H]5CO)O[C@@H]4CO)O[C@@H]3CO [Form 3 (Example 5.3)]
[1]; 5° C. stability, 8 wk
  Related substances, HPLC RRT 0.56 (Dimer): <0.05 % Area
  Related substances, HPLC RRT 0.60 (α-CD adduct): 1.19 % Area
  Related substances, HPLC RRT 1.14 (Mixed dimer): 0.05 % Area
  Related substances, HPLC RRT 1.21 (Erysolin): 0.28 % Area
  Related substances, HPLC RRT 1.58 (Thioether dimer): 0.07 % Area
  Related substances, Total Impurities: 1.98 % Area
[1]; 5° C. stability, Initial
  Related substances, HPLC RRT 0.56 (Dimer): <0.05 % Area
  Related substances, HPLC RRT 0.60 (α-CD adduct): 0.95 % Area
  Related substances, HPLC RRT 1.14 (Mixed dimer): 0.05 % Area
  Related substances, HPLC RRT 1.21 (Erysolin): 0.29 % Area
  Related substances, HPLC RRT 1.58 (Thioether dimer): 0.08 % Area
  Related substances, Total Impurities: 1.71 % Area
[1]; 25° C./60% RH stability, 8 wk
  Related substances, HPLC RRT 0.56 (Dimer): 0.26 % Area
  Related substances, HPLC RRT 0.60 (α-CD adduct): 3.21 % Area
  Related substances, HPLC RRT 1.14 (Mixed dimer): 0.05 % Area
  Related substances, HPLC RRT 1.21 (Erysolin): 0.27 % Area
  Related substances, HPLC RRT 1.58 (Thioether dimer): 0.07 % Area
  Related substances, Total Impurities: 4.57 % Area
[1]; [4]
  Related substances, HPLC RRT 0.56 (Dimer): <0.05 % Area
  Related substances, HPLC RRT 0.60 (α-CD adduct): 0.95 % Area
  Related substances, HPLC RRT 1.14 (Mixed dimer): 0.05 % Area
  Related substances, HPLC RRT 1.21 (Erysolin): 0.29 % Area
  Related substances, HPLC RRT 1.58 (Thioether dimer): 0.08 % Area
  Related substances, Total Impurities: 1.71 % Area
[2]; 1 month, 40° C./75% RH
  XRPD main peaks of stability sample: concordant with Form 3
[2]; 3 month, 25° C./60% RH
  XRPD main peaks of stability sample: concordant with Form 3
[3]; [5]
  KF water content: 2.5 % w/w
[3]; [6]
  KF water content: 2.1 % w/w
[3]; 5° C., 1 month, double bagged in HDPE bottle
  KF water content: 4.2 % w/w
[3]; 5° C., 3 months, double bagged in HDPE bottle
  KF water content: 4.6 % w/w
[3]; 5° C., 6 months, double bagged in HDPE bottle
  KF water content: 4.7 % w/w
[3]; 5° C., Initial, double bagged in HDPE bottle
  KF water content: 2.3 % w/w
[3]; [7]
  KF water content: 3.2 % w/w
[3]; 25° C./60% RH, 1 month, double bagged in HDPE bottle
  KF water content: 6.1 % w/w
[3]; 25° C./60% RH, 3 months, double bagged in HDPE bottle
  KF water content: 5.7 % w/w
[3]; 25° C./60% RH, 6 months, double bagged in HDPE bottle
  KF water content: 6.1 % w/w
[3]; 25° C./60% RH, Initial, double bagged in HDPE bottle
  KF water content: 2.3 % w/w
[3]; 40° C./75% RH, 1 month, double bagged in HDPE bottle
  KF water content: 6.2 % w/w
[3]; 40° C./75% RH, 3 months, double bagged in HDPE bottle
  KF water content: 6.2 % w/w
[3]; 40° C./75% RH, Initial, double bagged in HDPE bottle
  KF water content: 2.3 % w/w
[3]; [8]
  KF water content: 2.4 % w/w

## C[S+]([O-])CCCCN=C=S.OC[C@H]1O[C@@H]2O[C@H]3[C@H](O)[C@@H](O)[C@@H](O[C@H]4[C@H](O)[C@@H](O)[C@@H](O[C@H]5[C@H](O)[C@@H](O)[C@@H](O[C@H]6[C@H](O)[C@@H](O)[C@@H](O[C@H]7[C@H](O)[C@@H](O)[C@@H](O[C@H]1[C@H](O)[C@H]2O)O[C@@H]7CO)O[C@@H]6CO)O[C@@H]5CO)O[C@@H]4CO)O[C@@H]3CO [Form 3 (Example 5B-trial 5)]
[1]; 5° C. stability, 8 wk
  Related substances, HPLC RRT 0.56 (Dimer): 0.15 % Area
  Related substances, HPLC RRT 0.60 (α-CD adduct): 0.42 % Area
  Related substances, HPLC RRT 1.14 (Mixed dimer): 0.05 % Area
  Related substances, HPLC RRT 1.21 (Erysolin): 0.29 % Area
  Related substances, HPLC RRT 1.58 (Thioether dimer): <0.05 % Area
  Related substances, Total Impurities: 1.30 % Area
[1]; 5° C. stability, Initial
  Related substances, HPLC RRT 0.56 (Dimer): 0.15 % Area
  Related substances, HPLC RRT 0.60 (α-CD adduct): 0.36 % Area
  Related substances, HPLC RRT 1.14 (Mixed dimer): <0.05 % Area
  Related substances, HPLC RRT 1.21 (Erysolin): 0.28 % Area
  Related substances, HPLC RRT 1.58 (Thioether dimer): <0.05 % Area
  Related substances, Total Impurities: 1.16 % Area
[1]; 25° C./60% RH stability, 8 wk
  Related substances, HPLC RRT 0.56 (Dimer): 0.28 % Area
  Related substances, HPLC RRT 0.60 (α-CD adduct): 1.15 % Area
  Related substances, HPLC RRT 1.14 (Mixed dimer): 0.06 % Area
  Related substances, HPLC RRT 1.21 (Erysolin): 0.28 % Area
  Related substances, HPLC RRT 1.58 (Thioether dimer): <0.05 % Area
  Related substances, Total Impurities: 2.35 % Area
[1]; [4]
  Related substances, HPLC RRT 0.56 (Dimer): 0.15 % Area
  Related substances, HPLC RRT 0.60 (α-CD adduct): 0.36 % Area
  Related substances, HPLC RRT 1.14 (Mixed dimer): <0.05 % Area
  Related substances, HPLC RRT 1.21 (Erysolin): 0.28 % Area
  Related substances, HPLC RRT 1.58 (Thioether dimer): <0.05 % Area
  Related substances, Total Impurities: 1.16 % Area
[3]; [5]
  KF water content: 3.3 % w/w
[3]; [6]
  KF water content: 2.6 % w/w
[3]; [7]
  KF water content: 3.6 % w/w
[3]; [8]
  KF water content: 2.9 % w/w
